4 compounds from PubChem BioAssay (NCI) can be followed below.

Some test systems named below: M14 melanoma; 786-0 renal; NCI/ADR-RES ovarian; SK-OV-3 ovarian; TK-10 renal; SN12C renal; HCT-116 colon; HCC-2998 colon; DU-145 prostate; MCF7 breast; UO-31 renal.
Experiment in all cases: inhibition of tumour cell growth, NCI panel, 48 h

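Dose response: 5 concentrations. Exposure: 48 h. Format: 96-well plates. Endpoint: linear interpolation; highest concentration if not reached. TGI is the concentration that stops growth completely.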

Regarding `Cc1ccc(C2=Nc3cc(C)c(Cl)cc3S(=O)(=O)NN2)cc1`, the TGI in the test on M14 melanoma, in the test on 786-0 renal, with NCI/ADR-RES ovarian, in the test with SK-OV-3 ovarian, with TK-10 renal and in the test on SN12C renal was over 100 µM throughout. Moreover, the TGI in the test with HCT-116 colon, in the test with HCC-2998 colon, in the test with DU-145 prostate, in the test with MCF7 breast and with UO-31 renal was over 100 µM each time.
Regarding `CCCCCCCC1C(C)c2c([nH]c3ccccc23)C2C(=O)N(c3ccc(OC)cc3)C(=O)C21` (centres undefined), the TGI in the test with M14 melanoma is over 9.51 µM; with 786-0 renal, 3.28 µM; in the test on NCI/ADR-RES ovarian, 3.02 µM; with SK-OV-3 ovarian it was over 10 µM; in the test with TK-10 renal, 5.37 µM; with SN12C renal, over 5.95 µM. Moreover, the TGI was 3.61 µM in the test on HCT-116 colon; over 10 µM in the test with HCC-2998 colon; over 10 µM with DU-145 prostate; over 10 µM in the test with MCF7 breast; 6.86 µM in the test with UO-31 renal.
For the compound `Cc1c2c(c(C)n1-c1ccccc1)C(=O)N(CCCCN1CCN(c3ccccc3)CC1)C2=O`, the TGI with M14 melanoma is 79.7 µM; in the test with 786-0 renal, 19 µM; in the test with NCI/ADR-RES ovarian it was 83.9 µM; in the test on SK-OV-3 ovarian it was over 100 µM; with TK-10 renal, over 100 µM; in the test with SN12C renal it was 43.9 µM. Also, the TGI is 20.9 µM with HCT-116 colon; 27.1 µM in the test with HCC-2998 colon; over 100 µM with DU-145 prostate; 35.8 µM in the test on MCF7 breast; 24.8 µM with UO-31 renal.
As for `C=CCn1c(=O)c2ccccc2[n+]2c(C)c(C(=O)OCC)sc12`, the TGI with M14 melanoma, with 786-0 renal, with NCI/ADR-RES ovarian, with SK-OV-3 ovarian, in the test on TK-10 renal and in the test with SN12C renal was over 100 µM each time. The TGI in the test on HCT-116 colon, in the test with HCC-2998 colon, in the test with DU-145 prostate, in the test with MCF7 breast and in the test on UO-31 renal was over 100 µM throughout.
